# Assay results: patent US5922335A, “Uses for ascorbyl-phosphoryl-cholesterol in topical compositions” (Avon Products, Inc., priority 1998, dated 1999)
# Tests used:
# human skin fibroblasts = experiment: Collagen biosynthesis by cultured human skin fibroblasts ([3H]-Proline Incorporation Assay); format: cell-based; conditions: 48 hours; for collagen biosynthesis, Dpm × 10^-3 / mg protein: control 1.55; for collagen biosynthesis, Dpm × 10^-5 / mg DNA: control 14.43
# Protocol: An art-recognized [^3 H]-Proline Incorporation Assay was performed with differne does of 3'-(L-ascorbyl-2-o-phosphoryl)-cholesterol. Juva, Anal. Biocheml, Vol, 15, PAGES 77-83 (1966); Booth, Biochem. Biophys. Acta, Vol. 675, pages 117-122 (1981).
# After the first 24 hours [^3 H]-labeled proline was added to the culture. Following the second 24 hour period, the cells are harvested and prepared for the collagen biosynthesis assay.
# Protease inhibitors are added to prevent degradation of collagen and other proteins. The cell layer is scraped into a solution containing 0.4 M NaCl and 0.01 M Tris (pH 7.5). Extracts are sonicated to disrup cell membranes. Saparate volumes of the cell-containing solution (1 ml each) are dialyzed overnight against several changes of deionized water. The retentate is removed from dialysis and hydrolyzed in 6 N hydrochloric acid at 120 degrees C. overnight. The assay is performed using an oxidation process with 2 M chloramine-T. Samples are analyzed for radioactive counts, with represent the amount of newly synthesized [^3 H]-labeled proline - - - an index for new collagen synthesis.
# [1] = Superoxide anion scavenging by Electron Spin Resonance (hypoxanthine-xanthine oxidase system); format: biochemical; conditions: about 2.5 mg/ml; pH 7.4
# Protocol: Superoxide anion scavenging ability was estimated according to the method described in the Liu et al. article noted above. Superoxide anion was generated by a hypoxanthine (hereinafter "HPX")-xanthine oxidase (hereinafter "XOD") system. The following solutions were prepared: 50 μl of 4 mM HPX in 0.1M potassium phosphate buffer; 30 μl of dimethyl sulfoxide, 50 μL of sample; 20 μL OF […] DMPO in 0.1M potassium phosphate buffer; and, 50 μl of XOD (0.4 units/ml) in 0.1M potassium phosphate buffer. The pH of the 0.1M potassium phosphate buffer was 7.4. The solutions of HPX, DMSO, DMPO, XOD and sample were mixed and transferred into a 200 μl-capacity flat cell. Electron Spin Resonance spectra was analyzed.
# [2] = Hydroxyl radical scavenging activity by Electron Spin Resonance (DMPO, H2O2/FeSO4); format: biochemical; conditions: for Relative Peak Height (RPH): control 100.0; for Peak Height: pH 7.4
# Protocol: Hydroxy radical scavenging activity was measured according to an art accepted method. (See Liu et al. Antioxidant Action of Guilingji in the Brain of Rats with FeCl3-induced Epilepsy, Free Radical Biol. & Med., (9:451-545, 1990.) Sample solutions of 3'-(L-ascorbyl-2-o-phosphoryl)-cholesterol of varying concentrations were prepared by dissolving 3'-(L-ascorbyl-2-o-phosphoryl)-cholesterol in 0.1M potassium phosphate buffer (pH=7.4). The following solutions were also prepared: 0.18M 5,5-dimethyl-1-pyrooline-N-oxide (hereinafter "DMPO") in 0.1M potassium phosphate buffer; 2 mM hydrogen peroxide (hereinafter "H2 O2 ") in 0.1M potassium phosphate buffer; and 0. 2 mM iron(II) sulfate (hereinafter "FeSO4 ") in distilled water. Fifty (50) […] of each of the aforedescribed solutions and […] of a sample solution were mixed for thirty (30) seconds and then placed in a flat cell. The Electron Spin Resonance was then measured using Free Radical Monitor JES-FR30, manufactured by JEOL, Tokyo, Japan, (hereinafter "FRM"). The FRM normalized all spectra for calculation by using an internal standard of manganese dioxide (hereinafter "MnO2 "). All peak heights were compared to the constant MnO2 signal generated. Each sample peak height was then divided by the MnO2 peak height to provide a relative peak height (hereinafter "RPH").
# [3] = system: cultured human keratinocytes; experiment: Triglyceride biosynthesis in cultured normal human keratinocytes (3H-acetate incorporation); format: cell-based; conditions: 10 mM; 18.5 hours, then 3 hours with 3H-acetate; FIG. 1
# Protocol: Normal human keratinocytes (hereinafter "NHK") were cultured and then divided into three groups. Each of the three groups were grown in various media for 18.5 hours, the various media being as follows:
# 1 mM "cold" sodium acetate
# 10 mM Cholesterylmonophosphate (CMP)
# 10 mM 3'-(L-ascorbyl-2-o-phosphoryl)-cholesterol
# At the conclusion of 18.5 hours, 3H-acetate sodium salt (product number NEN#003H, 6.08 ci/mMole) was added to each group at 3 uCi/ml. The three groups were incubated at 37° C. for an additional 3 hours.
# At the conclusion of the incubation period, each group was washed three times with iced PBS. The cells were then collected, sonicated and aliquated for lipid extraction using Bligh/Dyer method and for protein quantification.
# The lipid extracts were subfracationated by Thin Layer Chromatography. Proteins were quantitated by Bradford assay.
# Triglyceride biosythesis in cultured human keratinocytes is measured as a function of incorporation of 3-H acetate. The incorporation of 3-H acetate is expressed as counts per minute per milligram of 3-H acetate (cpm/mg 3H acetate). The results are illustrated in FIG. 1.
# Human elastin promoter = experiment: Inhibition of elastin gene promoter activity in UVB-irradiated cultured dermal fibroblasts transfected with promoter-reporter molecules; format: cell-based; conditions: for % Inhibition of elastin promoter activity at 6 hours / % Inhibition of elastin promoter activity at 12 hours: 100 μ Solution
# Protocol: An art recognized method for evaluating the molecular events associated with increased elastin production was performed by measuring the activity of the elastin gene promoter, which is responsible for the activation of elastin gene transcription. (Bernstein, E. et al. 1995 Jour. Invest. Dermatol. 105:269-273).
# Human elastin promoter molecules were linked to reporter molecules. The promoter-reporter linked molecules were then transfected into cultured dermal fibroblasts. Previous studies indicate that exposure of cultured fibroblasts to UVB radiation results in upregulation of elastin promoter activity. However, it is believed that UVA radiation may have an indirect effect on solar-induced elastosis.
# Solutions of 1 μM to 100 μM of each 3'-(L-ascorbyl-2-o-phosphoryl)-cholesterol and ascorbic acid were produced. These solutions were then supplied to cultured fibroblasts. The control consisted of cultured fibroblasts in media containing neither 3'-(L-ascorbyl-2-o-phosphoryl)-cholesterol nor ascorbic acid.
# The cultured fibroblasts were irradiated with single, dose of UVB radiation (5.5 mJ/cm^2) using an FS-40 light source. The spectrum of effectiveness of the FS-40 light source is estimated at 80 to 90% attributable to UVB. It is believed that 10 to 20% of the effectiveness of the FS-40 light source is attributable to […]. The activity attributable to UVA is believed to be negligible.
structure (smiles),measurement,setting,value
CC(C)CCC[C@@H](C)[C@H]1CC[C@H]2[C@@H]3CC=C4C[C@@H](OP(=O)(O)OC5=C(O)[C@@H]([C@@H](O)CO)OC5=O)CC[C@]4(C)[C@H]3CC[C@]12C [3'-(L-ascorbyl-2-o-phosphoryl)-cholesterol],dose dependence of stimulation in human skin fibroblasts (in words),human skin fibroblasts; 11.3 to 45 μg/ml,increased production of new human skin fibroblasts in a dose dependent manner
same,Stimulation - fold Increase of collagen biosynthesis,human skin fibroblasts; 11.3 μl/ml,2.9 fold
same,"collagen biosynthesis, Dpm × 10^-3 / mg protein",human skin fibroblasts; 11.3 μl/ml,5.17 Dpm × 10^-3 / mg protein
same,"collagen biosynthesis, Dpm × 10^-5 / mg DNA",human skin fibroblasts; 11.3 μl/ml,42.07 Dpm × 10^-5 / mg DNA
same,Stimulation - fold Increase of collagen biosynthesis,human skin fibroblasts; 22.5 μl/ml,3.3 fold
same,"collagen biosynthesis, Dpm × 10^-3 / mg protein",human skin fibroblasts; 22.5 μl/ml,5.02 Dpm × 10^-3 / mg protein
same,"collagen biosynthesis, Dpm × 10^-5 / mg DNA",human skin fibroblasts; 22.5 μl/ml,48.31 Dpm × 10^-5 / mg DNA
same,Stimulation - fold Increase of collagen biosynthesis,human skin fibroblasts; 45.0 μl/ml,6.4 fold
same,"collagen biosynthesis, Dpm × 10^-3 / mg protein",human skin fibroblasts; 45.0 μl/ml,11.07 Dpm × 10^-3 / mg protein
same,"collagen biosynthesis, Dpm × 10^-5 / mg DNA",human skin fibroblasts; 45.0 μl/ml,92.25 Dpm × 10^-5 / mg DNA
same,inhibition of the formation of the superoxide,[1],50%
same,hydroxyl radical scavenging (in words),[2],effective scavenger of hydroxyl radicals
same,Relative Peak Height (RPH),[2]; 0.0391 mg/ml,100.0
same,Peak Height,[2]; 0.0391 mg/ml,1.60
same,Relative Peak Height (RPH),[2]; 0.0782 mg/ml,85.0
same,Peak Height,[2]; 0.0782 mg/ml,1.36
same,Relative Peak Height (RPH),[2]; 0.1563 mg/ml,78.1
same,Peak Height,[2]; 0.1563 mg/ml,1.25
same,Relative Peak Height (RPH),[2]; 0.3125 mg/ml,57.5
same,Peak Height,[2]; 0.3125 mg/ml,0.92
same,Relative Peak Height (RPH),[2]; 0.6250 mg/ml,30.6
same,Peak Height,[2]; 0.6250 mg/ml,0.49
same,Relative Peak Height (RPH),[2]; 1.2500 mg/ml,9.4
same,Peak Height,[2]; 1.2500 mg/ml,0.15
same,Relative Peak Height (RPH),[2]; 2.5000 mg/ml,5.6
same,Peak Height,[2]; 2.5000 mg/ml,0.09
same,triglyceride synthesis in cultured human keratinocytes (in words),[3],significantly increases triglyceride synthesis in cultured human keratinocytes
same,effect on elastin promoter activity in cultured fibroblasts (in words),"Human elastin promoter; 1 μM to 100 μM, UVB 5.5 mJ/cm^2",decreased elastin promoter activity in cultured fibroblasts in a dose dependent manner
same,degree of elastin promoter inhibition compared with ascorbic acid (in words),"Human elastin promoter; 1 μM to 100 μM, compared to ascorbic acid",exhibits a far superior degree of elastin promoter inhibition
same,% Inhibition of elastin promoter activity at 6 hours,Human elastin promoter; UVB 5.5 mJ/cm^2,43%
same,% Inhibition of elastin promoter activity at 12 hours,Human elastin promoter; UVB 5.5 mJ/cm^2,34%
same,duration of elastin promoter inhibition compared with ascorbic acid (in words),Human elastin promoter; compared to ascorbic acid,inhibits elastin promoter activity for a significantly longer period of time than ascorbic acid
"O=C1O[C@H]([C@@H](O)CO)C(O)=C1O [Ascorbic Acid, ascorbic acid, reference compound]",% Inhibition of elastin promoter activity at 6 hours,Human elastin promoter; UVB 5.5 mJ/cm^2,23%
same,% Inhibition of elastin promoter activity at 12 hours,Human elastin promoter; UVB 5.5 mJ/cm^2,0%
